Source: US8847018B2, “Plants tolerant to HPPD inhibitor herbicides” (Bayer CropScience AG, priority 2009, dated 2014)

How the values were obtained:
[1] = tested on: tobacco calli containing HPPD SEQ ID No. 21 (Rhodococcus); experiment: Rooting of calli on media with tembotrione; type: cell-based, Nicotiana tabacum; details: calli containing SEQ ID No. 21; 6 to 12 weeks
Description: (§1) The leaf disks were co-cultivated for 2 days with Agrobacterium tumefaciens cells containing either the binary vector FMP22ebv, FMP23ebv or AtHPPDbv. Then the leaf disks were transferred to a media allowing the regeneration of shoots for 6 weeks on MS (Musharige and Skoog, (1962), Physiol Plant 15(3): 473-497) media supplemented with BAP ([…]; Benzylaminopurine), carbenicillin ([…]), cefotaxine (250 mg/mL), kanamycin (75 mg/mL) and tembotrione (10^−6 M)
(§2) Regenerated calli were transferred on media to induce the development of roots for 6 to 12 weeks: MS (½), supplemented with carbenicillin (250 mg/mL), cefotaxine (250 mg/mL), kanamycin (75 mg/mL), and tembotrione (10^−6 M).
(§3) Regenerated shoot calli from a cell transformed with a nucleic acid sequence encoding an HPPD comprising SEQ ID No. 11 (Arabidopsis thaliana) SEQ ID No. 21 or SEQ ID No. 7 (Rhodococcus) were transferred to a media inducing root growth which media was further supplemented with the HPPD inhibitor tembotrione for 6 to 12 weeks.

[2] = tested on: tobacco calli containing HPPD SEQ ID No. 7 (Rhodococcus); experiment: Rooting of calli on media with tembotrione; type: cell-based, Nicotiana tabacum; details: calli containing SEQ ID No. 7; 6 to 12 weeks
Description: as §1, §2, §3

[3] = tested on: tobacco calli containing HPPD SEQ ID No. 11 (Arabidopsis thaliana); experiment: Rooting of calli on media with tembotrione; type: cell-based, Nicotiana tabacum; details: calli containing SEQ ID No. 11; 6 to 12 weeks
Description: as §1, §2, §3

[4] = biological target: T1, Arabidopsis thaliana HPPD SEQ ID No. 10 (Arabidopsis thaliana, UniProt P93836); experiment: HPLC assay of HPPD in vitro kinetic properties
T1 sequence (P93836 with tags, fused parts or gaps): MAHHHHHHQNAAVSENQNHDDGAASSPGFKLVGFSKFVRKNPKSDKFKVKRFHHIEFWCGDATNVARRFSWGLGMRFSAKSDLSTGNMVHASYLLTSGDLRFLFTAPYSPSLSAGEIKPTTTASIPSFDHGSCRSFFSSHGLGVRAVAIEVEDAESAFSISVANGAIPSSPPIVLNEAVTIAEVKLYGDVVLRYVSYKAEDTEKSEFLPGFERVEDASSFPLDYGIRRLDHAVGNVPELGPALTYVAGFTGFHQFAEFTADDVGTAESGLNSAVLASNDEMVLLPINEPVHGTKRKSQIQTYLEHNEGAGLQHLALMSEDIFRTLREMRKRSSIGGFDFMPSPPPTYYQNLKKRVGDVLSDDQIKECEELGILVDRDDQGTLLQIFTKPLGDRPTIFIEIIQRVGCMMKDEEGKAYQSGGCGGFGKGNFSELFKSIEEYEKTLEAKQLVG
Description: All assays were started by the addition of HPPD enzyme to the assay mixture and stopped at a series of times between 0 and 240 s by addition of 200 μl of the reaction mixture to reaction assay tubes containing 20 μl 10% perchloric acid. Precipitated protein was pelleted by a 5 minute centrifugation at 10,000 g. […] For Km and Vmax value determinations the initial rates of the HPPD reaction at different substrate concentrations were determined from plots of HGA formed versus time and fitted to the Michaelis-Menten equation for unireactant enzymes using the ID Business Solutions Ltd. (idbs.com) XLfit software suite.

[5] = tested on: Rhodococcus HPPD SEQ ID No. 5 (FMP22e); experiment: biochemical; type: biochemical, Rhodococcus sp. (strain RHA1), isolate ro03041; details: SEQ ID No. 5
[6] = biological target: (Rhodococcus jostii, UniProt Q0SF39); experiment: HPLC assay of HPPD in vitro kinetic properties; type: biochemical, Rhodococcus sp. (strain RHA1), isolate ro02040
[7] = biological target: Rhodococcus HPPD SEQ ID No. 19 (FMP23e); experiment: HPLC assay of HPPD in vitro kinetic properties; type: biochemical, Rhodococcus sp. (strain RHA1), isolate ro02040; details: 2 mM HPP; SEQ ID No. 19
[8] = tested on: rice plants containing FMP23e; experiment: Response to tembotrione in glasshouse trials, T0 rice; type: in vivo; details: 100 g AI/ha, 7 DAT
Description: (§4) T0 rooted plantlets (either selected on phosphinothricin alone or on phosphinothricin supplemented with tembotrione) were transferred to soil in the glasshouse. Following an acclimation period, sufficiently grown plants were treated with the different HPPD inhibitor herbicides. As an example, T0 plants were sprayed with tembotrione of formulation type WP20 100 g Al/ha supplemented with ammonium sulfate and methyl ester raps oil. Seven days after the spray application, the symptoms due to the application of the herbicide were evaluated and compared the symptoms observed on wild type plants submitted to the same treatment.
(§5) The plants were classified in three categories based on the phenotype developed in response to the herbicide seven days after the treatment.

[9] = tested on: rice plants containing FMP22e; experiment: as above; type: in vivo; details: 100 g AI/ha, 7 DAT
Description: as §4, §5

With `CS(=O)(=O)c1ccc(C(=O)C2C(=O)CCCC2=O)c(Cl)c1COCC(F)(F)F` [Tembotrione, 2-[2-chloro-4-(methylsulfonyl)-3-[(2,2,2,-tri-fluoroethoxy)methyl]benzoyl]-1,3-cyclo-hexanedione] as the compound, how does the “% Elongation & rooting on 10^−6 M tembotrione” value [1] read?
Its value is 63%.

What about the “root growth on media with tembotrione” value [1] of the same compound?
Its value is “clearly developed numerous and healthy roots”.

What about the “% Elongation & rooting on 10^−6 M tembotrione” value [2] of the same compound?
The value was 65%.

And the “root growth on media with tembotrione” value [2]?
Its value is “clearly developed numerous and healthy roots”.

And the “root growth on media with tembotrione” value [3]?
The value was “On none of the events containing the HPPD defined by SEQ ID No. 11 (Arabidopsis thaliana) or none transformed calli, root growth was observed”.

What about the Ki [4] of the same compound?
Its Ki is 15 nM.

And the pI50 ([5]; 2 mM HPP, 3 minutes incubation)?
Its pI50 is 5.3.

What about the “percentage of inhibition compared to activity in absence of the inhibitor” value ([5]; 5.0 × 10^−6 M inhibitor) of the same compound?
The value was 36%.

And the kon ([6]; read-out: k1 (Kon, association rate constant))?
The kon was 3200 M⁻¹ s⁻¹.

And the koff ([6]; read-out: k−1 (Koff, enzyme-inhibitor complex dissociation))?
The koff was 0.0063 s⁻¹.

What about the Ki [7] of the same compound?
The Ki was 2000 nM.

What about the “Class II (number of plants, temporary light injuries, injury: 10-40%)” value [8] of the same compound?
Its value is 10.

And the “Class III (number of plants, strong injuries, injury: 41-100%)” value [8]?
The value was 7.

And the “Class II (number of plants, temporary light injuries, injury: 10-40%)” value [9]?
Its value is 19.
